# Legend:
# Assay type in all cases: cell-based, human
# insulin-producing cells [1] = experiment: Kinetics of CDK inhibitor-induced MAFA expression, PCR (Example 6)
# Description: (§1) DMEM/F12+1% B27 for seven days (Stage 6), then • g. Treatment with Accutase for 5 minutes, followed by scraping to remove any remaining attached cells. The cell suspension was then passed through a 40 μm cell strainer. The cells retained on the strainer were removed by rinsing in basal media and cultured in suspension on Ultra-Low culture plates in DMEM-High Glucose (Catalogue#11995-073, Invitrogen, Ca)+1% B27+20 ng/ml of activin A (AA) 2 μm of CDK inhibitor III (Catalog#217714, Calbiochem, Ca) for 1-8 days (Stage 7).
# Samples were collected for PCR analysis at days 1, 2, 3, and 4.
# insulin-producing cells [2] = experiment: FACS analysis of insulin producing cells (Example 5); conditions: 1 μM for 5 days
# Description: as §1, with “(AA) 1” for “(AA) 2”, “for 5” for “for 1-8”
# Islet-like clusters were dispersed into single cells using TrypLE Express (Invitrogen, Carlsbad, Calif.) and washed in cold PBS. For fixation, the cells were resuspended in 200-300 μl Cytofix/Cytoperm Buffer (BD 554722, BD, Ca) and incubated for 30 min at 4° C. Cells were washed two times in 1 ml Perm/Wash Buffer Solution (BD 554723) and resuspended in 100 μl staining/blocking solution containing 2% normal goat serum in Perm/Wash buffer. For flow cytometric analysis, cells were stained with the following primary antibodies: Anti-Insulin (Rabbit mAb, Cell Signaling No. C279; 1:100 dilution); Anti-Glucagon (Mouse Mab, Sigma No. G2654, 1:100); Anti-Synaptophysin (Rabbit Polyclonal antibody, DakoCytomation No A0010, 1:50). […] Cells were washed at least once in Perm/Wash buffer and analyzed using BD FACSArray. […]
# islet-like clusters = experiment: CDK inhibitor III treatment of islet-like clusters in suspension (Stage 7): PCR and dithizone staining (Example 4); conditions: 1 μm
# Description: The medium was changed daily.
# After stage 6, the cells were treated for 5 mins at room temperature with 1× accutase (Sigma, Mo.). The accutase was removed, and DMEM/12+1% B27 was added to the cells. The attached cells were removed using a cell scarper and gently resuspended and passed through a 40 μm cell strainer. The cells retained on the strainer were removed by rinsing in basal media and cultured in suspension on Ultra-Low culture plates (Catalogue#3471, Corning, Ma). […] Cells treated with vehicle were included as controls. Samples were collected at days 7 through 10 for PCR analysis and dithizone staining. The cells cultured in suspension according to the methods outlined in this example assumed a morphology similar to pancreatic islet clusters.
# [3] = 2 μm, days 1-4 of stage 7, increased as a function of time
# [4] = four days after removal of the compound
# [5] = Stage 7, days 7 through 10, PCR
smiles,measurement,setting,value
"Nc1nc(Nc2ccc(S(N)(=O)=O)cc2)nn1C(=S)Nc1c(F)cccc1F [PubChem ID#5330812, 5-Amino-3-((4-(aminosulfonyl)phenyl)amino)-N-(2,6-difluorophenyl)-1H-1,2,4-triazole-1-carbothioamide]",MAFA expression,insulin-producing cells [1]; [3],significant increase
same,insulin expression,insulin-producing cells [1]; [3],significant increase
same,MAFA expression after removal of CDK inhibitor,insulin-producing cells [1]; [4],significant drop
same,insulin expression after removal of CDK inhibitor,insulin-producing cells [1]; [4],significant drop
same,percentage of poly hormonal (insulin and glucagon positive) cells,"insulin-producing cells [2]; Stage 7, versus vehicle",decreased
same,single hormonal insulin positive cells,"insulin-producing cells [2]; Stage 7, vehicle 3%",8%
same,expression of markers associated with the pancreatic endocrine lineage,islet-like clusters; [5],increased the expression
same,expression of the pro-insulin transcription factor MAFA,islet-like clusters; [5],increased the expression
same,dithazone (DTZ) staining of clusters,"islet-like clusters; Stage 7, versus untreated clusters",more reddish staining pattern
